Measured values: patent US11306096B2, “4,6 dihydropyrrolo [3,4-C] pyrazole-5 (1H)-carbonitrile derivates for treating cancer” (MISSION THERAPEUTICS LIMITED, priority 2016, dated 2022)

target: USP7 (Homo sapiens (Human), UniProt Q93009); experiment: USP7 Biochemical IC50 Assay; details: FLAG-USP7; enzyme and compound incubated 30 min at room temp; TAMRA labelled peptide-ubiquitin fluorescence polarisation substrate; read after 2 hr; read-out: IC50 range
Description: The USP7 construct was PCR amplified and cloned into a pFLAG-CMV-6a vector (Sigma-Aldrich) with an N-terminal FLAG tag. HEK293T cells were transfected with FLAG-USP7 using TransIT-LT1 transfection reagent (Mirus) according to the manufacturer's instructions. Cells were harvested 40 hours after transfection. […] The resin was washed two times with low salt buffer plus protease inhibitors (complete mini, Roche) and phosphatase inhibitors (PhosSTOP mini, Roche) and one time with high salt buffer (20 mM Tris, pH 7.5, 500 mM NaCl, 0.5 mM EDTA, 5 mM beta-mercaptoethanol, protease inhibitors (complete mini, Roche) and phosphatase inhibitors (PhosSTOP mini, Roche). To elute the bound USP7, elution buffer (10 mM Tris, pH 7.5, 150 mM NaCl, 0.5 mM EDTA, 10% glycerol, 0.5% NP40, 5 mM beta-mercaptoethanol, 0.15 mg/ml 3×FLAG peptide (Sigma-Aldrich)) was added to the resin and incubated at 4° C. for 2.5 hours rotating. The resin was centrifuged at 4000 rpm for 30 seconds, and the supernatant containing purified FLAG-USP7 was removed and stored at −80° C.
USP7 Biochemical IC50 Assay
A typical 8-point dilution series would be 100, 30, 10, 3, 1, 0.3, 0.1, 0.03 μM final. […] Either 1 μl of 50% DMSO or diluted compound was added to the plate. USP7 was diluted in reaction buffer (20 mM Tris, pH 7.5, 100 mM NaCl, 0.05% Tween 20, 0.5 mg/ml BSA, 5 mM—beta mercaptoethanol) to the equivalent of 0.0025 μl/well and 10 μl of diluted USP7 was added to the compound. Enzyme and compound were incubated for 30 min at room temp. Reactions were initiated by the addition of 50 nM of TAMRA labelled peptide linked to ubiquitin via an iso-peptide bond as fluorescence polarisation substrate. Reactions were read immediately after addition of substrate and following a 2 hr incubation at room temperature. Readings were performed on a Pherastar Plus (BMG Labtech). λ Excitation 540 nm; λ Emission 590 nm.

USP7, sequence (Q93009 whole entry): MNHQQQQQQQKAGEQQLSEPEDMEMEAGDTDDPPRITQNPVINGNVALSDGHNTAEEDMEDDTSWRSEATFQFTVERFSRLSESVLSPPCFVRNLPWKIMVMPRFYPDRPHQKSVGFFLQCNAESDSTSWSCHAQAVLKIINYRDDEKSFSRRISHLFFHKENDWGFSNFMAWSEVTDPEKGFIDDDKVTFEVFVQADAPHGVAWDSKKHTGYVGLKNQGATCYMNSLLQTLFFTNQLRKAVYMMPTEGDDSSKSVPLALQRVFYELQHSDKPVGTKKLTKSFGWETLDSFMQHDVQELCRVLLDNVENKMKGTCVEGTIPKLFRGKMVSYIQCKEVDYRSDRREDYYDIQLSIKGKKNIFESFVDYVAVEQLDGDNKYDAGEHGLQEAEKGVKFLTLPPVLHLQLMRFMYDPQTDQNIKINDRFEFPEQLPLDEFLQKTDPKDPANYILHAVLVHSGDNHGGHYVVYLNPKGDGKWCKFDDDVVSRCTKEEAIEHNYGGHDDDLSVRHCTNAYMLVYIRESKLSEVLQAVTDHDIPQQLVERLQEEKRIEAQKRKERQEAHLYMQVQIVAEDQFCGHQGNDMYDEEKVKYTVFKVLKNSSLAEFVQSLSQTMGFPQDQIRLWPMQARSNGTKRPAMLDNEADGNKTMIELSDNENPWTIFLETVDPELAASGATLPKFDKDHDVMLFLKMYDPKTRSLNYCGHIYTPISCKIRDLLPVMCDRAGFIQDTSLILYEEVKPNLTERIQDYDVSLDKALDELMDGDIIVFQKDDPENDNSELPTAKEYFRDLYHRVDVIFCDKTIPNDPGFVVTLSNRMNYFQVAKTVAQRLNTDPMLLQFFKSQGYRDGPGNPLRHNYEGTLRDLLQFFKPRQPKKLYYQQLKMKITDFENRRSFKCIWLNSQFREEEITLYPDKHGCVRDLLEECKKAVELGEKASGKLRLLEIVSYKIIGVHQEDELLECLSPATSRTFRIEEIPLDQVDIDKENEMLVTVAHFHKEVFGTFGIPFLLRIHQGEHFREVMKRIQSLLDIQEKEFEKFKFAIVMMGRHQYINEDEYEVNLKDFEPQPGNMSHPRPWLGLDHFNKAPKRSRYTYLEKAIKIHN

Row | SMILES | IC50
1 | COc1ccc(-n2ncc3c2CN(C#N)C3)cc1 [Example 1, 1-(4-Methoxyphenyl)-4,6-dihydropyrrolo[3,4-c]pyrazole-5(1H)-carbonitrile] | 10 to 30 µM
2 | N#CN1Cc2cnn(-c3cc(-c4ccccc4)n[nH]3)c2C1 [Example 20, 1-(3-Phenyl-1H-pyrazol-5-yl)-4,6-dihydropyrrolo[3,4-c]pyrazole-5(1H)-carbonitrile] | 10 to 30 µM
3 | N#CN1Cc2cnn(-c3ccc(C(N)=O)cc3)c2C1 [Example 5, 4-(5-Cyano-5,6-dihydropyrrolo[3,4-c]pyrazol-1(4H)-yl)benzamide] | 10 to 30 µM
4 | COc1ccc(Cl)cc1-c1n[nH]c2c1CN(C#N)C2 [Example 77, 3-(5-Chloro-2-methoxyphenyl)-4,6-dihydropyrrolo[3,4-c]pyrazole-5(4H)-carbonitrile] | < 10 µM
5 | COc1ccc(C(C)C)cc1-c1c2c(nn1C)CN(C#N)C2 [Example 63, 3-(5-Isopropyl-2-methoxyphenyl)-2-methyl-2,6-dihydropyrrolo[3,4-c]pyrazole-5(4H)-carbonitrile] | 10 to 30 µM
6 | N#CN1Cc2cnn(-c3cccc(NS(=O)(=O)C4CC4)c3)c2C1 [Example 78, N-(3-(5-Cyano-5,6-dihydropyrrolo[3,4-c]pyrazol-1(4H)-yl)phenyl) cyclopropanesulfonamide] | 10 to 30 µM
7 | N#CN1Cc2cnn(-c3ccc(C(=O)NCc4ccccn4)cc3)c2C1 [Example 14, 4-(5-Cyano-5,6-dihydro-pyrrolo[3,4-c]pyrazol-1(4H)-yl)-N-(pyridin-2-ylmethyl)benzamide] | 10 to 30 µM
8 | Cn1nccc1-c1n[nH]c2c1CN(C#N)C2 [Example 39, 3-(1-Methyl-1H-pyrazol-5-yl)-4,6-dihydropyrrolo[3,4-c]pyrazole-5(1H)-carbonitrile] | 10 to 30 µM
9 | N#CN1Cc2cnn(-c3cccc(C(=O)NCc4ccccc4)c3)c2C1 [Example 11, N-Benzyl-3-(5-cyano-5,6-dihydropyrrolo[3,4-c]pyrazol-1(4H)-yl)benzamide] | 10 to 30 µM
10 | N#CN1Cc2cnn(-c3cn(-c4ccccc4)cn3)c2C1 [Example 9, 1-(1-Phenyl-1H-imidazol-4-yl)-4,6-dihydropyrrolo[3,4-c]pyrazole-5(1H)-carbonitrile] | 10 to 30 µM
11 | Cc1nn(-c2ccccc2)c2c1CN(C#N)C2 [Example 10, 3-Methyl-1-phenyl-4,6-dihydropyrrolo[3,4-c]pyrazole-5(1H)-carbonitrile] | 10 to 30 µM
12 | CNC(=O)c1cc(-n2ncc3c2CN(C#N)C3)ccc1OC [Example 18, 5-(5-Cyano-5,6-dihydropyrrolo[3,4-c]pyrazol-1(4H)-yl)-2-methoxy-N-methylbenzamide] | 30 to 100 µM
13 | N#CN1Cc2[nH]nc(-c3ccc(C(F)(F)F)cc3F)c2C1 [Example 43, 3-(2-Fluoro-4-(trifluoromethyl)phenyl)-4,6-dihydropyrrolo[3,4-c]pyrazole-5(1H)-carbonitrile] | < 10 µM
14 | N#CN1Cc2cnn(-c3ccccc3F)c2C1 [Example 4, 1-(2-Fluorophenyl)-4,6-dihydropyrrolo[3,4-c]pyrazole-5(1H)-carbonitrile] | 10 to 30 µM
15 | N#CN1Cc2[nH]nc(-c3ccc(N4CCOCC4)cc3)c2C1 [Example 72, 3-(4-Morpholinophenyl)-4,6-dihydropyrrolo[3,4-c]pyrazole-5(1H)-carbonitrile] | < 10 µM
16 | Cc1ccc2[nH]ncc2c1-c1n[nH]c2c1CN(C#N)C2 [Example 54, 3-(5-Methyl-1H-indazol-4-yl)-4,6-dihydropyrrolo[3,4-c]pyrazole-5(1H)-carbonitrile] | < 10 µM

Continued, values first:

Row | IC50 | SMILES
17 | < 10 µM | N#CN1Cc2c(Nc3cc4ccccc4cn3)nn(Cc3ccccc3)c2C1 [Example 32, 1-Benzyl-3-(isoquinolin-3-ylamino)-4,6-dihydropyrrolo[3,4-c]pyrazole-5(1H)-carbonitrile]
18 | < 10 µM | N#Cc1ccc(-c2n[nH]c3c2CN(C#N)C3)cc1 [Example 42, 3-(4-Cyanophenyl)-4,6-dihydropyrrolo[3,4-c]pyrazole-5(1H)-carbonitrile]
19 | < 10 µM | N#CN1Cc2[nH]nc(-c3ccc(F)cc3)c2C1 [Example 59, 3-(4-Fluorophenyl)-4,6-dihydropyrrolo[3,4-c]pyrazole-5(1H)-carbonitrile]
20 | < 10 µM | N#CN1Cc2[nH]nc(-c3ccc(OCc4ccccc4)cc3)c2C1 [Example 37, 3-(4-(Benzyloxy)phenyl)-4,6-dihydropyrrolo[3,4-c]pyrazole-5(1H)-carbonitrile]
21 | < 10 µM | CN1CCN(c2ccc(-c3n[nH]c4c3CN(C#N)C4)c(F)c2)CC1 [Example 73, 3-(2-Fluoro-4-(4-methylpiperazin-1-yl)phenyl)-4,6-dihydro-pyrrolo[3,4-c]pyrazole-5(1H)-carbonitrile]
22 | < 10 µM | N#CN1Cc2[nH]nc(CNC(=O)c3cn4cc(Cl)ccc4n3)c2C1 [Example 65, 6-Chloro-N-((5-cyano-1,4,5,6-tetrahydropyrrolo[3,4-c]pyrazol-3-yl)methyl)-imidazo[1,2-a]pyridine-2-carboxamide]
23 | < 10 µM | CN1CCN(c2cccc(-c3n[nH]c4c3CN(C#N)C4)c2)CC1 [Example 71, 3-(3-(4-Methylpiperazin-1-yl)phenyl)-4,6-dihydropyrrolo[3,4-c]pyrazole-5(1H)-carbonitrile]
24 | < 10 µM | COc1cc(Cl)ccc1-c1n[nH]c2c1CN(C#N)C2 [Example 67, 3-(4-Chloro-2-methoxyphenyl)-4,6-dihydropyrrolo[3,4-c]pyrazole-5(4H)-carbonitrile]
25 | < 10 µM | N#CN1Cc2[nH]nc(-c3cccc(S(=O)(=O)NC4CC4)c3)c2C1 [Example 55, 3-(5-Cyano-1,4,5,6-tetrahydropyrrolo[3,4-c]pyrazol-3-yl)-N-cyclopropylbenzene-sulfonamide]
26 | < 10 µM | N#CN1Cc2[nH]nc(-c3cc(OC(F)(F)F)ccc3Cl)c2C1 [Example 44, 3-(2-Chloro-5-(trifluoro-methoxy)phenyl)-4,6-dihydropyrrolo[3,4-c]pyrazole-5(1H)-carbonitrile]
27 | < 10 µM | Cc1cc(-c2n[nH]c3c2CN(C#N)C3)ccc1N1CCN(C)CC1 [Example 74, 3-(3-Methyl-4-(4-methylpiperazin-1-yl)phenyl)-4,6-dihydro-pyrrolo[3,4-c]pyrazole-5(1H)-carbonitrile]
28 | < 10 µM | N#Cc1cccc(-c2n[nH]c3c2CN(C#N)C3)c1 [Example 38, 3-(3-Cyanophenyl)-4,6-dihydropyrrolo[3,4-c]pyrazole-5(1H)-carbonitrile]
29 | < 10 µM | N#CN1Cc2[nH]nc(-c3cccc(NS(=O)(=O)C4CC4)c3)c2C1 [Example 56, N-(3-(5-Cyano-1,4,5,6-tetrahydropyrrolo[3,4-c]pyrazol-3-yl)phenyl)cyclo-propanesulfonamide]
30 | < 10 µM | Cn1nc2c(c1-c1ccccc1)CN(C#N)C2 [Example 22, 2-Methyl-3-phenyl-2,6-dihydropyrrolo[3,4-c]pyrazole-5(4H)-carbonitrile]
31 | < 10 µM | Cn1ncc2cc(-n3ncc4c3CN(C#N)C4)ccc21 [Example 17, 1-(1-Methyl-1H-indazol-5-yl)-4,6-dihydropyrrolo[3,4-c]pyrazole-5(1H)-carbonitrile]
32 | < 10 µM | N#CN1Cc2[nH]nc(CNC(=O)c3cc(-c4ccccc4)n[nH]3)c2C1 [Example 34, N-((5-Cyano-1,4,5,6-tetrahydropyrrolo[3,4-c]pyrazol-3-yl)methyl)-3-phenyl-1H-pyrazole-5-carboxamide]
33 | < 10 µM | Cc1ccc(F)c(-c2n[nH]c3c2CN(C#N)C3)c1 [Example 27, 3-(2-Fluoro-5-methylphenyl)-4,6-dihydropyrrolo[3,4-c]pyrazole-5(1H)-carbonitrile]
34 | < 10 µM | N#CN1Cc2[nH]nc(-c3ccc(Oc4ccccc4)cc3)c2C1 [Example 41, 3-(4-Phenoxyphenyl)-4,6-dihydropyrrolo[3,4-c]pyrazole-5(1H)-carbonitrile]
35 | < 10 µM | N#CN1Cc2cnn(-c3n[nH]c4ccccc34)c2C1 [Example 19, 1-(1H-Indazol-3-yl)-4,6-dihydropyrrolo[3,4-c]pyrazole-5(1H)-carbonitrile]
36 | < 10 µM | N#CN1Cc2[nH]nc(-c3cccc(F)c3)c2C1 [Example 57, 3-(3-Fluorophenyl)-4,6-dihydropyrrolo[3,4-c]pyrazole-5(1H)-carbonitrile]
37 | < 10 µM | Cn1nc2c(c1Nc1cc3ccccc3cn1)CN(C#N)C2 [Example 30, 3-(Isoquinolin-3-ylamino)-2-methyl-2,6-dihydropyrrolo[3,4-c]pyrazole-5(4H)-carbonitrile]
38 | < 10 µM | Cc1ccc(C(=O)NCc2nn(-c3ccccc3)c3c2CN(C#N)C3)cc1 [Example 35, N-((5-Cyano-1-phenyl-1,4,5,6-tetrahydropyrrolo[3,4-c]pyrazol-3-yl)methyl)-4-methylbenzamide]
